Experimental findings from patent US11883387B2, “PqsR inverse agonists” (HELMHOLTZ-ZENTRUM FÜR INFEKTIONSFORSCHUNG GMBH, priority 2018, dated 2024) are described below.

Series [1] in a line: Metabolic stability in mouse liver microsomes (MLM). It is filed as in vitro ADME. The following applies: 1 μM compound, 0.5 mg/mL MLM, 1 mM NADPH, 37° C., read-out: half-life (t1/2) towards MLM. The procedure: For the evaluation of phase I metabolic stability, the compound (1 μM) was incubated with 0.5 mg/mL MLM (Corning) and 1 mM NADPH at 37° C. for 0, 5, 10, 15 and 30 min. The metabolic stability of Verapamil, Diphenhydramine and Benzydamine (1 μM each) were determined in parallel to confirm the enzymatic activity of the MLM. The incubation was stopped by addition of 2 volumes of acetonitrile containing internal standard (1 μM Leucine Enkephaline). Samples were centrifuged (15 min, 3,500 rpm). Concentration of the remaining test compound at the different time points was analyzed by HPLC-MS/MS and used to determine half-life (t1/2).
A general note: Liver microsomes are vesicles of endoplasmic reticulum, rich in cytochrome P450 enzymes.

The nature of series [2]: Kinetic Turbidimetric Aqueous Solubility at room temperature for 5 min. It counts as physicochemical. The conditions noted are these: PBS buffer, kinetic from dmso stock, 2% DMSO. Here is the method: Kinetic Turbidimetric Aqueous Solubility at room temperature for 5 min. Test compound was diluted in PBS buffer to give a range of concentrations (typically 0.4, 2, 4, 20, 40, 100, and 200 μM, final DMSO concentration 2%) and incubated at room temperature for 5 min. Absorbance was measured at a wavelength of 620 nm and the solubility was estimated from the concentration of test compound that produces an increase in absorbance above the vehicle control (i.e., […]). Data was analyzed by fitting a four parameter sigmoidal function to the measured and normalized absorbances and AUC calculation providing access to Log S (decadic logarithm of the solubility).

In series [3] the target is PqsR (Pseudomonas aeruginosa, UniProt Q9I4X0). Description: E. coli based β-galactosidase reporter gene assay (PqsR inverse agonistic activity). It counts as cell-based. Also on record: expressed in transfected cells; host or cells: Escherichia coli DH5α. The essentials:
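E. coli DH5α carrying pEAL08-2 (tac-driven pqsR with pqsA-lacZ) was grown to OD600 0.2 and incubated with 0.001–10 μM compound plus 50 nM PQS for 2.5 h at 37 °C. β-Galactosidase activity was measured by ONPG conversion in permeabilized cells and normalized between the no-PQS and solvent controls. IC50 came from concentration variation.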
For orientation: Reporter assays use an easily measured gene product as a stand-in for the process of interest.

Series [4] has as its system P. aeruginosa pyocyanin production. Description: Pyocyanin assay. It is filed as cell-based, P. aeruginosa PA14. The conditions noted are these: Pseudomonas aeruginosa, PA14, 16 h, read-out: IC50-value towards pyocyanin production, PA14 in PPGAS medium, 16 h. An outline of the steps:
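PA14 in PPGAS medium from OD600 0.02 grown 16 h at 37 °C, 200 rpm, with compounds. Pyocyanin extracted with chloroform, back-extracted into 0.2 M HCl, OD520 normalised to OD600.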

In general, solubility refers to the dissolved amount per volume that the medium holds. Low readings indicate a poorly soluble substance, high ones a readily soluble substance. One may read the IC50 as the concentration that inhibits the measured activity by half.

PqsR, sequence (Q9I4X0 whole entry): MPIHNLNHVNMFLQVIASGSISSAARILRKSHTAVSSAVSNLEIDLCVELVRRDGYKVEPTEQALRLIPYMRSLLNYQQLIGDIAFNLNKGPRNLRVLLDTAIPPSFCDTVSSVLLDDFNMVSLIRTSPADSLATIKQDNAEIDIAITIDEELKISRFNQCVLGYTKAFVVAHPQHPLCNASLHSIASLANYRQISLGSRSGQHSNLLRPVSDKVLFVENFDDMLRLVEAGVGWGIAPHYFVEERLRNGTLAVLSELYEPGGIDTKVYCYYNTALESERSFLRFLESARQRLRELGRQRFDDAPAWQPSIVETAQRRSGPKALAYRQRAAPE

`FC(F)(F)c1cc(NCc2ccc(-c3ccc(Cl)nc3)cn2)ccn1` [Compound 098, N-((6′-Chloro-[3,3′-bipyridin]-6-yl)methyl)-2-(trifluoromethyl)pyridin-4-amine]: the half-life at 1 μM in series [1] was over 1 h. In series [2], this compound showed a solubility at 5 min of at least 100 µM. In series [3], this compound came in with an IC50 of 51 to 250 nM.

As to `FC(F)(F)c1cc(NCc2cn(-c3ccc(Oc4ccccc4)cc3)nn2)cc(Cl)n1` [Compound 032, 2-Chloro-N-((1-(4-phenoxyphenyl)-1H-1,2,3-triazol-4-yl)methyl)-6-(trifluoromethyl)pyridin-4-amine], the half-life at 1 μM in series [1] was over 1 h. The same compound displayed an IC50 in series [3] of at most 50 nM.

For the compound `FC(F)(F)c1cc(NCc2cn(-c3ccc(Br)cc3)nn2)ccn1` [Compound 039, N-((1-(4-Bromophenyl)-1H-1,2,3-triazol-4-yl)methyl)-2-(trifluoromethyl)pyridin-4-amine], in series [1], the half-life at 1 μM was 0.517 to 1 h. The compound further yielded a solubility at 5 min in series [2] of over 50 µM. The IC50 in series [3] was 251 to 1000 nM.

Take `Fc1ccc(Oc2ccc(-c3nc(CNc4ccnc(C(F)(F)F)c4)cs3)cn2)cc1` [Compound 083, N-((2-(6-(4-Fluorophenoxy)pyridin-3-yl)thiazol-4-yl)methyl)-2-(trifluoromethyl)pyridin-4-amine]: in series [1], the half-life at 1 μM is over 1 h. Moreover, the 50% inhibitory concentration (IC50) in series [3] fell in the range of 51 to 250 nM.

In the case of `FC(F)(F)c1cc(NCc2cn(-c3ccc(Oc4ccc(Cl)cc4)cc3)nn2)ccn1` [Compound 037, N-((1-(4-(4-Chlorophenoxy)phenyl)-1H-1,2,3-triazol-4-yl)methyl)-2-(trifluoromethyl)pyridin-4-amine], the half-life at 1 μM in series [1] was over 1 h. In series [2], the solubility at 5 min was over 10 µM. Besides, in series [3], the IC50 is at most 50 nM.

Take `FC(F)(F)c1cc(NCc2ccc(-c3cccc(Oc4ccccc4)c3)cn2)ccn1` [Compound 103, N-((5-(3-Phenoxyphenyl)pyridin-2-yl)methyl)-2-(trifluoromethyl)pyridin-4-amine]: the IC50 in series [4] lay in the range of 1000 to 5000 nM; in series [3], 251 to 1000 nM. Also, the half-life at 1 μM in series [1] fell in the range of 0.517 to 1 h.

As to `FC(F)(F)c1cc(NCc2cnc(-c3ccc(Oc4ccccc4)cc3)s2)cc(Cl)n1` [Compound 092, 2-Chloro-N-((2-(4-phenoxyphenyl)thiazol-5-yl)methyl)-6-(trifluoromethyl)pyridin-4-amine], the IC50 was 251 to 1000 nM in series [4] and at most 50 nM in series [3]. In addition, the half-life at 1 μM in series [1] lay within 0.517 to 1 h.

With `FC(F)(F)c1cc(NCc2cn(-c3ccc(Oc4ccccc4)cc3)nn2)cc(I)n1` [Compound 007, 2-Iodo-N-((1-(4-phenoxyphenyl)-1H-1,2,3-triazol-4-yl)methyl)-6-(trifluoromethyl)pyridin-4-amine], the IC50 in series [4] is 251 to 1000 nM; in series [3], at most 50 nM. Also, in series [1], the half-life at 1 μM lay within 0.517 to 1 h.

`Clc1cc(NCc2cn(-c3ccc(Oc4ccccc4)cc3)nn2)cc(Cl)n1` [Compound 048, 2,6-Dichloro-N-((1-(4-phenoxyphenyl)-1H-1,2,3-triazol-4-yl)methyl)pyridin-4-amine]: the IC50 was at most 250 nM in series [4] and at most 50 nM in series [3]. In series [1], the half-life at 1 μM lay within 0.517 to 1 h.

As to `FC(F)(F)c1cc(NCc2cc(-c3ccc(Oc4ccccc4)cc3)no2)ccn1` [Compound 139, N-((3-(4-phenoxyphenyl)isoxazol-5-yl)methyl)-2-(trifluoromethyl)pyridin-4-amine], the half-life at 1 μM in series [1] is 0.517 to 1 h. The same compound registered an IC50 in series [3] of at most 50 nM.

As for `COC(=O)c1ccc(Oc2ccc3[nH]c(CSc4ccnc(C(F)(F)F)c4)nc3c2)cc1` [Compound 179, methyl 4-((2-(((2-(trifluoromethyl)pyridin-4-yl)thio)methyl)-1H-benzo[d]imidazol-5-yl)oxy)benzonate], the figures for the half-inhibitory concentration (IC50) in series [4] and in series [3] were 1000 to 5000 nM and 251 to 1000 nM, respectively. Besides, the solubility at 5 min in series [2] was over 10 µM.

`COc1ccc(-c2ncc(CSc3cc(N)nc(C(F)(F)F)n3)s2)cc1Cl` [Compound 069, 6-(((2-(3-chloro-4-methoxyphenyl)thiazol-5-yl)methyl)thio)-2-(trifluoromethyl) pyrimidin-4-amine]: the half-life at 1 μM in series [1] is over 1 h. In addition, the solubility at 5 min in series [2] is over 25 µM.

On to `CC(C)Oc1ccc(-n2cc(CNc3ccnc(C(F)(F)F)c3)nn2)cc1Cl` [Compound 036, N-((1-(3-Chloro-4-isopropoxyphenyl)-1H-1,2,3-triazol-4-yl)methyl)-2-(trifluoromethyl)pyridin-4-amine], for which the IC50 in series [4] was at most 250 nM; in series [3] it was at most 50 nM. In addition, in series [2], the solubility at 5 min is over 25 µM.

With `Clc1cc(NCc2cnc(-c3ccc(Oc4ccccc4)cc3)s2)ccn1` [Compound 093, 2-Chloro-N-((2-(4-phenoxyphenyl)thiazol-5-yl)methyl)pyridin-4-amine], the IC50 in series [4] is 251 to 1000 nM; in series [3], at most 50 nM. For the same compound, the half-life at 1 μM in series [1] was 0.517 to 1 h.

For the compound `FC(F)(F)c1cc(NCc2cn(-c3ccc(OC4CC4)c(Cl)c3)nn2)ccn1` [Compound 154, N-((1-(3-chloro-4-cyclopropoxyphenyl)-1H-1,2,3-triazol-4-yl)methyl)-2-(trifluoromethyl)pyridin-4-amine], the IC50 in series [4] was 251 to 1000 nM; in series [3] it was at most 50 nM. Moreover, the solubility at 5 min in series [2] was over 10 µM.

As to `FC(F)(F)c1cc(NCc2cc(-c3ccc(Oc4ccccc4)cc3)n[nH]2)ccn1` [Compound 096, N-((3-(4-Phenoxyphenyl)-1H-pyrazol-5-yl)methyl)-2-(trifluoromethyl)pyridin-4-amine], the figures for the IC50 in series [4] and in series [3] were 251 to 1000 nM and 51 to 250 nM, respectively. Further, the solubility at 5 min in series [2] is over 10 µM.

Regarding `CC(C)Oc1ccc(-c2ncc(CNc3cc(Cl)nc(C(F)(F)F)c3)s2)cc1` [Compound 161, 2-Chloro-N-((2-(4-isopropoxyphenyl)thiazol-5-yl)methyl)-6-(trifluoromethyl)pyridin-4-amine], the IC50 in series [4] was at most 250 nM; in series [3], at most 50 nM. Further, the solubility at 5 min in series [2] was over 25 µM.

`Nc1cc(SCc2cnc(-c3ccc(Oc4ccccc4)cc3)s2)nc(C(F)(F)F)n1` [Compound 068, 6-(((2-(4-phenoxyphenyl)thiazol-5-yl)methyl)thio)-2-(trifluoromethyl)pyrimidin-4-amine]: the half-life at 1 μM in series [1] is over 1 h. In series [2], this compound yielded a solubility at 5 min of over 10 µM.

In the case of `FC(F)(F)c1cc(NCc2cn(-c3ccc(Oc4cccc(Cl)c4)cc3)nn2)ccn1` [Compound 030, N-((1-(4-(3-Chlorophenoxy)phenyl)-1H-1,2,3-triazol-4-yl)methyl)-2-(trifluoromethyl)pyridin-4-amine], in series [1], the half-life at 1 μM is over 1 h. The IC50 in series [3] was at most 50 nM.

For `FC(F)(F)c1cc(NCc2cn(-c3ccc(OC4CCC4)c(Cl)c3)nn2)ccn1` [Compound 047, N-((1-(3-chloro-4-cyclobutoxyphenyl)-1H-1,2,3-triazol-4-yl)methyl)-2-(trifluoromethyl)pyridin-4-amine], the results for the IC50 in series [4] and in series [3] were at most 250 nM and at most 50 nM, respectively. Also, the solubility at 5 min in series [2] is over 25 µM.

As to `Fc1ccc(Oc2ccc(-c3nc(CNc4ccnc(C(F)(F)F)c4)cs3)cc2)cc1` [Compound 088, N-((2-(4-(4-Fluorophenoxy)phenyl)thiazol-4-yl)methyl)-2-(trifluoromethyl)pyridin-4-amine], the half-life at 1 μM in series [1] was over 1 h. In series [3], the IC50 was at most 50 nM.

With `O=C(c1ccccc1)c1ccc(-n2cc(CSc3ccnc(C(F)(F)F)c3)nn2)cc1` [Compound 057, Phenyl(4-(4-(((2-(trifluoromethyl)pyridin-4-yl)thio)methyl)-1H-1,2,3-triazol-1-yl)phenyl)methanone], the half-life at 1 μM in series [1] is over 1 h. Further, the IC50 in series [3] fell in the range of 51 to 250 nM.

As to `FC(F)(F)c1cc(NCc2cnc(-c3ccc(C4CC4)cc3)nc2)ccn1` [Compound 107, N-((2-(4-Cyclopropylphenyl)pyrimidin-5-yl)methyl)-2-(trifluoromethyl)pyridin-4-amine], the IC50 is 251 to 1000 nM in series [4] and 51 to 250 nM in series [3]. In series [2], the solubility at 5 min was over 10 µM.

`Fc1cccc(Oc2ccc(-n3cc(CNc4ccnc(C(F)(F)F)c4)nn3)cc2)c1` [Compound 145, N-((1-(4-(3-fluorophenoxy)phenyl)-1H-1,2,3-triazol-4-yl)methyl)-2-(trifluoromethyl)pyridin-4-amine]: the IC50 in series [4] is at most 250 nM; in series [3], at most 50 nM. Also, the solubility at 5 min in series [2] was over 25 µM.
